Test results reported in article PMC6803074 (Experimental hematology, 2019).

Columns and labels:
Assay in all cases: cell proliferation assay
Type in all cases: cell-based
BCR-ABL1 [1] = settings: BCR-ABL1-positive cells; proliferation read-out; stated gain
BCR-ABL1 [2] = settings: BCR-ABL1-positive cells; proliferation read-out; stated gain; remark: listed apart in the source
BCR-ABL1 [3] = settings: BCR-ABL1-positive cells; proliferation read-out
BCR-ABL1 [4] = settings: BCR-ABL1-positive cells; proliferation read-out; stated gain; remark: listed apart in the source

Cc1ccc(C(=O)NNC(=O)c2c(C)cccc2Cl)cc1C#Cc1cnc2ccccc2c1 [K0706]
IC50 (BCR-ABL1 [1]): 1967 nM
IC50 (BCR-ABL1 [2]): 165 nM
IC50 (BCR-ABL1 [3]): 7 nM
IC50 (BCR-ABL1 [4]): 154 nM
